Calls of active or inactive are those of the source. No cut-off for these calls is given here.
Key:
[1] = system: Pichia kudriavzevii; assay: Antibiofilm activity against Pichia kudriavzevii ATCC 34135 assessed as disruption of preformed biofilm after 24 hrs by concanavalin A-FITC-staining based fluorescence microscopic analysis; format: functional
[2] = species on record: Danio rerio; assay: Toxicity against zebrafish embryo assessed as effect on notochord at 2.5 ug/ml measured at 96 hrs post fertilization by inverted microscopic analysis; format: organism-based; settings: in vivo
[3] = species on record: Danio rerio; assay: Toxicity against zebrafish embryo assessed as effect on otoliths at 5 ug/ml measured at 96 hrs post fertilization by inverted microscopic analysis; format: organism-based; settings: in vivo
[4] = species on record: Danio rerio; assay: Toxicity against zebrafish embryo assessed as normal embryos at 2.5 ug/ml measured at 96 hrs post fertilization by inverted microscopic analysis; format: organism-based; settings: in vivo
[5] = system: Trichophyton mentagrophytes; assay: Antifungal activity against Trichophyton mentagrophytes DMT4 by broth dilution method; format: functional
[6] = system: Danio rerio; assay: Toxicity against zebrafish embryo assessed as yolk edema at 10 ug/ml measured at 96 hrs post fertilization by inverted microscopic analysis; format: organism-based; settings: in vivo
[7] = species on record: Danio rerio; assay: Toxicity against zebrafish embryo assessed as effect on blood circulation at 10 ug/ml measured at 96 hrs post fertilization by inverted microscopic analysis; format: organism-based; settings: in vivo
[8] = system: Candida albicans; assay: Antifungal activity against Candida albicans CA5 by broth dilution method; format: functional
[9] = species on record: Danio rerio; assay: Toxicity against zebrafish embryo assessed as effect on notochord at 5 ug/ml measured at 96 hrs post fertilization by inverted microscopic analysis; format: organism-based; settings: in vivo
[10] = system: Candida albicans; assay: Antifungal activity against Candida albicans ATCC 10231 by broth dilution method; format: functional
[11] = system: Candida parapsilosis; assay: Antibiofilm activity against Candida parapsilosis C27 assessed as disruption of preformed biofilm after 24 hrs by concanavalin A-FITC-staining based fluorescence microscopic analysis; format: functional
[12] = species on record: Danio rerio; assay: Toxicity against zebrafish embryo assessed as head malformation at 5 ug/ml measured at 96 hrs post fertilization by inverted microscopic analysis; format: organism-based; settings: in vivo
[13] = species on record: Danio rerio; assay: Toxicity against zebrafish embryo assessed as effect on eyes at 5 ug/ml measured at 96 hrs post fertilization by inverted microscopic analysis; format: organism-based; settings: in vivo
[14] = Toxicity against zebrafish embryo measured at 96 hrs post fertilization by inverted microscopic analysis; format: organism-based, Danio rerio; settings: zebrafish embryos
[15] = species on record: Danio rerio; assay: Toxicity against zebrafish embryo assessed as head malformation at 2.5 ug/ml measured at 96 hrs post fertilization by inverted microscopic analysis; format: organism-based; settings: in vivo
[16] = species on record: Danio rerio; assay: Toxicity against zebrafish embryo assessed as head malformation at 10 ug/ml measured at 96 hrs post fertilization by inverted microscopic analysis; format: organism-based; settings: in vivo
[17] = system: Candida albicans; assay: Antibiofilm activity against Candida albicans assessed as inhibition of Spider medium-induced hyphae formation at sub-MIC after 24 hrs by propidium iodide and FITC-conjugated concanavaline A staining based fluorescence microscopy; format: functional, organism-based
[18] = species on record: Danio rerio; assay: Toxicity against zebrafish embryo assessed as unhatched embryos at 5 ug/ml measured at 96 hrs post fertilization by inverted microscopic analysis; format: organism-based; settings: in vivo
[19] = species on record: Danio rerio; assay: Toxicity against zebrafish embryo assessed as effect on otoliths at 10 ug/ml measured at 96 hrs post fertilization by inverted microscopic analysis; format: organism-based; settings: in vivo
[20] = species on record: Danio rerio; assay: Toxicity against zebrafish embryo assessed as effect on tail tip at 5 ug/ml measured at 96 hrs post fertilization by inverted microscopic analysis; format: organism-based; settings: in vivo
[21] = species on record: Danio rerio; assay: Toxicity against zebrafish embryo assessed as skeletal deformities at 5 ug/ml measured at 96 hrs post fertilization by inverted microscopic analysis; format: organism-based; settings: in vivo
[22] = species on record: Danio rerio; assay: Toxicity against zebrafish embryo assessed as growth retardation at 2.5 ug/ml measured at 96 hrs post fertilization by inverted microscopic analysis; format: organism-based; settings: in vivo
[23] = species on record: Danio rerio; assay: Toxicity against zebrafish embryo assessed as skeletal deformities at 2.5 ug/ml measured at 96 hrs post fertilization by inverted microscopic analysis; format: organism-based; settings: in vivo
[24] = system: Pichia kudriavzevii; assay: Antifungal activity against Candida krusei ATCC 34135 by broth dilution method; format: functional
[25] = system: Danio rerio; assay: Toxicity against zebrafish embryo assessed as yolk edema at 2.5 ug/ml measured at 96 hrs post fertilization by inverted microscopic analysis; format: organism-based; settings: in vivo
[26] = species on record: Danio rerio; assay: Toxicity against zebrafish embryo assessed as effect on otoliths at 2.5 ug/ml measured at 96 hrs post fertilization by inverted microscopic analysis; format: organism-based; settings: in vivo
[27] = Toxicity against zebrafish embryo assessed as dead embryos at 2.5 ug/ml measured at 96 hrs post fertilization by inverted microscopic analysis; format: organism-based, Danio rerio; settings: read-out: Activity
[28] = species on record: Danio rerio; assay: Toxicity against zebrafish embryo assessed as normal embryos at 50 ug/ml measured at 96 hrs post fertilization by inverted microscopic analysis; format: organism-based; settings: in vivo
[29] = system: Candida albicans; assay: Induction of DNA intercalation with Candida albicans genomic DNA at 25 ug/ml after 12 hrs by ethidium bromide staining based gel electrophoresis method
[30] = system: Danio rerio; assay: Toxicity against zebrafish embryo assessed as pericardial edema at 10 ug/ml measured at 96 hrs post fertilization by inverted microscopic analysis; format: organism-based; settings: in vivo
[31] = species on record: Danio rerio; assay: Toxicity against zebrafish embryo assessed as skeletal deformities at 10 ug/ml measured at 96 hrs post fertilization by inverted microscopic analysis; format: organism-based; settings: in vivo
[32] = species on record: Danio rerio; assay: Toxicity against zebrafish embryo assessed as teratogenic embryos at 50 ug/ml measured at 96 hrs post fertilization by inverted microscopic analysis; format: organism-based; settings: in vivo
[33] = Toxicity against zebrafish embryo assessed as dead embryos at 10 ug/ml measured at 96 hrs post fertilization by inverted microscopic analysis; format: organism-based, Danio rerio; settings: read-out: Activity
[34] = system: Danio rerio; assay: Toxicity against zebrafish embryo assessed as pericardial edema at 5 ug/ml measured at 96 hrs post fertilization by inverted microscopic analysis; format: organism-based; settings: in vivo
[35] = species on record: Danio rerio; assay: Toxicity against zebrafish embryo assessed as unhatched embryos at 2.5 ug/ml measured at 96 hrs post fertilization by inverted microscopic analysis; format: organism-based; settings: in vivo
[36] = species on record: Danio rerio; assay: Toxicity against zebrafish embryo assessed as normal embryos at 25 ug/ml measured at 96 hrs post fertilization by inverted microscopic analysis; format: organism-based; settings: in vivo
[37] = species on record: Danio rerio; assay: Toxicity against zebrafish embryo assessed as growth retardation at 10 ug/ml measured at 96 hrs post fertilization by inverted microscopic analysis; format: organism-based; settings: in vivo
[38] = species on record: Danio rerio; assay: Toxicity against zebrafish embryo assessed as effect on blood circulation at 2.5 ug/ml measured at 96 hrs post fertilization by inverted microscopic analysis; format: organism-based; settings: in vivo
[39] = species on record: Danio rerio; assay: Toxicity against zebrafish embryo assessed as teratogenic embryos at 2.5 ug/ml measured at 96 hrs post fertilization by inverted microscopic analysis; format: organism-based; settings: in vivo
[40] = Toxicity against zebrafish embryo assessed as dead embryos at 25 ug/ml measured at 96 hrs post fertilization by inverted microscopic analysis; format: organism-based, Danio rerio; settings: read-out: Activity
[41] = species on record: Danio rerio; assay: Toxicity against zebrafish embryo assessed as effect on notochord at 10 ug/ml measured at 96 hrs post fertilization by inverted microscopic analysis; format: organism-based; settings: in vivo
[42] = system: MRC5; assay: Cytotoxicity against human MRC5 cells after 48 hrs by MTT assay; format: cell-based; settings: MRC5, 48 h
[43] = species on record: Danio rerio; assay: Toxicity against zebrafish embryo assessed as unhatched embryos at 10 ug/ml measured at 96 hrs post fertilization by inverted microscopic analysis; format: organism-based; settings: in vivo
[44] = system: Fusarium oxysporum; assay: Antifungal activity against Fusarium oxysporum AB18 by broth dilution method; format: functional
[45] = Toxicity against zebrafish embryo assessed as dead embryos at 50 ug/ml measured at 96 hrs post fertilization by inverted microscopic analysis; format: organism-based, Danio rerio; settings: read-out: Activity
[46] = Induction of membrane damage in PC/PS/E liposome assessed as calcein release at MIC after 30 mins by fluorescence-based liposome leakage assay; format: functional
[47] = species on record: Danio rerio; assay: Toxicity against zebrafish embryo assessed as effect on blood circulation at 5 ug/ml measured at 96 hrs post fertilization by inverted microscopic analysis; format: organism-based; settings: in vivo
[48] = system: Candida parapsilosis; assay: Antifungal activity against Candida parapsilosis C27 by broth dilution method; format: functional; settings: Lodderomyces parapsilosis

Q: What does the source list for `Cl.N=C(N)N/N=C/c1ccc(-c2ccc(Br)cc2)s1`?
A: MBEC [1]: 125 µg/mL; Activity [2]: 0%; Activity [3]: 0%; Activity [4]: 100%; MIC [5]: 0.97 µg/mL; Activity [6]: 0%; Activity [7]: 0%; MIC [8]: 1.56 µg/mL; Activity [9]: 0%; MIC [10]: 3.12 µg/mL; MBEC [11]: 125 µg/mL; Activity [12]: 0%; Activity [13]: 0%; LC50 at 96 h [14]: 14.1 µg/mL; Activity [15]: 0%; Activity [16]: 0%; Activity [17]: Active; Activity [18]: 0%; Activity [19]: 0%; Activity [20]: 0%; Activity [21]: 0%; Activity [22]: 0%; Activity [23]: 0%; MIC [24]: 1.56 µg/mL; Activity [25]: 0%; Activity [26]: 0%; mortality at 96 h, 2.5 ug/ml [27]: 0%; Activity [28]: 0%; Activity [29]: Active; Activity [30]: 33.33%; Activity [31]: 0%; Activity [32]: 0%; mortality at 96 h, 10 ug/ml [33]: 30%; Activity [34]: 11.11%; Activity [35]: 0%; Activity [36]: 0%; Activity [37]: 0%; Activity [38]: 0%; Activity [39]: 0%; mortality at 96 h, 25 ug/ml [40]: 73.3%; Activity [41]: 0%; IC50 [42]: 2 µg/mL; Activity [43]: 0%; MIC [44]: 3.9 µg/mL; mortality at 96 h, 50 ug/ml [45]: 100%; Activity [46]: 7%; Activity [47]: 0%; MIC [48]: 3.9 µg/mL

Q: With `Cc1ccc(-c2ccc(/C=N/NC(=N)N)s2)cc1.Cl` as the compound, how does the MBEC [1] read?
A: 250 µg/mL

Q: And the Activity [2]?
A: 0%

Q: What about the Activity [3] of the same compound?
A: 62.5%

Q: What about the Activity [4] of the same compound?
A: 56.67%

Q: And the MIC [5]?
A: 1.56 µg/mL

Q: And the Activity [6]?
A: 0%

Q: What about the Activity [7] of the same compound?
A: 0%

Q: And the MIC [8]?
A: 0.5 µg/mL

Q: What about the Activity [9] of the same compound?
A: 0%

Q: And the MIC [10]?
A: 0.9 µg/mL

Q: And the MBEC [11]?
A: 125 µg/mL

Q: And the Activity [12]?
A: 100%

Q: And the Activity [13]?
A: 0%

Q: And the LC50 at 96 h [14]?
A: 8.2 µg/mL

Q: And the Activity [15]?
A: 0%

Q: And the Activity [16]?
A: 100%

Q: And the Activity [17]?
A: Active

Q: And the Activity [18]?
A: 0%

Q: And the Activity [19]?
A: 100%

Q: What about the Activity [20] of the same compound?
A: 0%

Q: What about the Activity [21] of the same compound?
A: 0%

Q: What about the Activity [22] of the same compound?
A: 0%

Q: What about the Activity [23] of the same compound?
A: 0%

Q: And the MIC [24]?
A: 3.12 µg/mL

Q: And the Activity [25]?
A: 0%

Q: What about the Activity [26] of the same compound?
A: 0%

Q: What about the mortality at 96 h, 2.5 ug/ml [27] of the same compound?
A: 10%

Q: And the Activity [28]?
A: 0%

Q: And the Activity [29]?
A: Active

Q: What about the Activity [30] of the same compound?
A: 100%

Q: And the Activity [31]?
A: 6.67%

Q: What about the Activity [32] of the same compound?
A: 0%

Q: And the mortality at 96 h, 10 ug/ml [33]?
A: 50%

Q: What about the Activity [34] of the same compound?
A: 100%

Q: What about the Activity [35] of the same compound?
A: 0%

Q: And the Activity [36]?
A: 0%

Q: And the Activity [37]?
A: 100%

Q: What about the Activity [38] of the same compound?
A: 0%

Q: And the Activity [39]?
A: 6.67%

Q: What about the mortality at 96 h, 25 ug/ml [40] of the same compound?
A: 100%

Q: What about the Activity [41] of the same compound?
A: 0%

Q: What about the IC50 [42] of the same compound?
A: 2.5 µg/mL

Q: What about the Activity [43] of the same compound?
A: 0%

Q: And the MIC [44]?
A: 7.8 µg/mL

Q: And the mortality at 96 h, 50 ug/ml [45]?
A: 100%

Q: What about the Activity [46] of the same compound?
A: 7%

Q: And the Activity [47]?
A: 0%

Q: What about the MIC [48] of the same compound?
A: 3.9 µg/mL
